{
  "source": "patent US20190212344A1",
  "about": "“BIOMARKERS FOR USE IN DETERMINING RESPONSE TO TREATMENT OF NEURODEGENERATION DISEASE” (The Board of Trustees of the Leland Stanford Junior …, priority 2016, published 2019)",
  "tested_on": "R6/2 mice",
  "test": "Survival of R6/2 and WT mice during P110 treatment",
  "format": "in vivo, mouse",
  "settings": "10 P110-treated WT mice, intermittent treatment over 8 weeks",
  "description": "All the experiments were in accordance with protocols approved by the Institutional Animal Care and Use Committee of Stanford University and were performed based on the National Institutes of Health Guide for the Care and Use of Laboratory Animals. Hemizygous R6/2 HD mice and their wild-type littermates (WT) were purchased from Jackson Laboratories and shipped to us at 5 weeks of age. The animals used in the P110 treatment study were implanted with a 28-day osmotic pump (Alzet, Cupertino Calif.) containing TAT47-57 carrier control peptide or P110-TAT47-57 (P110 peptide), which delivered to the mice at a rate of 3 mg/Kg/day, as described before. The first pump was implanted at 5 weeks of age and replaced once, after 4 weeks. For the intermittent treatment study, TAT or P110 were delivered as above, using a 1-week pump. After 3 weeks with no treatment, a new pump was implanted for another week of treatment, and mice were sacrificed three weeks later, at the age of 13 weeks.\nThe overall survival during the study period was recorded and the remaining mice were sacrificed when they reached 13 weeks. […]\nThe results are presented as mean±SE. Statistical analysis was assessed by unpaired Student's t test and 1-way ANOVA using GraphPad Prism (GraphPad Software, Inc, La Jolla, Calif.). […]",
  "note": "Residues, ends and D or L forms follow the SMILES beside them.",
  "data": [
    {"smiles": "CC(C)C[C@H](NC(=O)[C@H](CC(=O)O)NC(=O)CNC(=O)CNC(=O)[C@H](CCCNC(=N)N)NC(=O)[C@H](CCCNC(=N)N)NC(=O)[C@H](CCCNC(=N)N)NC(=O)[C@H](CCC(N)=O)NC(=O)[C@H](CCCNC(=N)N)NC(=O)[C@H](CCCNC(=N)N)NC(=O)[C@H](CCCCN)NC(=O)[C@H](CCCCN)NC(=O)[C@H](CCCNC(=N)N)NC(=O)CNC(=O)[C@@H](N)Cc1ccc(O)cc1)C(=O)N[C@@H](CC(C)C)C(=O)N1CCC[C@H]1C(=O)N[C@@H](CCCNC(=N)N)C(=O)NCC(=O)N[C@@H](CO)C(=O)O", "note": "[P110] (H-YGRKKRRQRRRGGDLLPRGS-OH)", "values": [
      {"measurement": "death in WT mice", "value": "no death"}
    ]}
  ]
}
